One assay has as its target CDC7 (Homo sapiens, UniProt O00311). Briefly: CDC7 inhibition, biochemical chemiluminescence assay (Kinase Glo, IC50 determination). In outline: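 CDC7 enzyme preincubated with compound 10 min at ambient temperature, then ATP mix in Tris Base added; reaction 90 min at 24-27 °C. Remaining ATP quantified by Kinase Glo luminescence to give IC50.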
The target of assay [1] is PIM (PIM-1, PIM-2, and/or PIM-3). Briefly: PIM-1, PIM-2 and PIM-3 inhibition, biochemical chemiluminescence assays (Kinase Glo, IC50 determination). The following applies: Table 1 activity class; PIM refers to PIM-1, PIM-2, and/or PIM-3; read-out: PIM IC50 (Activity B).
Another assay addresses CK2 (Homo sapiens, UniProt P68400). Briefly: CK2 inhibition, biochemical chemiluminescence holoenzyme assay (Kinase Glo, IC50 determination). In outline: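 Holoenzyme CK2 assay; compounds pre-incubated with substrate and enzyme, then reacted 150 min at 24-27° C. Remaining ATP measured as luminescence with Kinase Glo, and IC50 derived from the signal.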
[2] abbreviates: Table 1 activity class, symbol given only if active, read-out: CDC7 IC50 (Activity A).
The mark [3] stands for this setting: Table 1 activity class, symbol given only if active, read-out: CK2 IC50 (Activity C).
[4] abbreviates: compounds in Table 1, read-out: CDC7 IC50 value.

Like-named read-outs stand apart in the source and are kept apart here.

Chain of CK2 (P68400 whole entry): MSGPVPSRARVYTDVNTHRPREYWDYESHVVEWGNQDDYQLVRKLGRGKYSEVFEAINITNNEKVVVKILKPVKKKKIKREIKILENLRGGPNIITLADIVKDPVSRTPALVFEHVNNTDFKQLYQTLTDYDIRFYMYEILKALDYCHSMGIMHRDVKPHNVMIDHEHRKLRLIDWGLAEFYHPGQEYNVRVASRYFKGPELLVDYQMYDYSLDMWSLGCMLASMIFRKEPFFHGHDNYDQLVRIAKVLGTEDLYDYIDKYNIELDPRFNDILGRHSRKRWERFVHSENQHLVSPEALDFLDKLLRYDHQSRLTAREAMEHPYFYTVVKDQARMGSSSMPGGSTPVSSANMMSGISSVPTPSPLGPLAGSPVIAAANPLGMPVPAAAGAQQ
Chain of CK2 (P67870 whole entry partner): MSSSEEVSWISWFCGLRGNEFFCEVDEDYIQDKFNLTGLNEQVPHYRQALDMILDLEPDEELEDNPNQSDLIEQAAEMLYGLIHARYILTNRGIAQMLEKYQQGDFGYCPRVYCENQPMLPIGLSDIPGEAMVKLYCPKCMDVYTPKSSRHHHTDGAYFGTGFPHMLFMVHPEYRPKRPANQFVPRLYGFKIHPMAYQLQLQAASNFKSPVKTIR
Chain of CDC7 (O00311 whole entry): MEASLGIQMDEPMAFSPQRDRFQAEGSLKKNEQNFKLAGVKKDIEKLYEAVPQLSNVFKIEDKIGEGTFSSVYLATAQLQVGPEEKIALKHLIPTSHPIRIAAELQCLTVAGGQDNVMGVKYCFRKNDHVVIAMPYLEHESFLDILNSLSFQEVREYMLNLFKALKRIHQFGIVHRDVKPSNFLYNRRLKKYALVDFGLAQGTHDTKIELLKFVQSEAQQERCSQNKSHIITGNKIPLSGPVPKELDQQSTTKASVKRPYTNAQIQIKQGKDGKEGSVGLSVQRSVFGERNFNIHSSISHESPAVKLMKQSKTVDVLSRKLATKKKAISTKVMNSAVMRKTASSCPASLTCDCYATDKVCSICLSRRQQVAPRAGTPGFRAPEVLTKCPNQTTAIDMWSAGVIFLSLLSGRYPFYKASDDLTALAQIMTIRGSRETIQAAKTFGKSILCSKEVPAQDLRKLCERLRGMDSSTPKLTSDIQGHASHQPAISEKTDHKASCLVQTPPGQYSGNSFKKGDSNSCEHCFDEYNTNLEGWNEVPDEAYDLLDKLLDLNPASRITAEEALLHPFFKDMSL
Chain of CDC7 (Q9UBU7 whole entry partner): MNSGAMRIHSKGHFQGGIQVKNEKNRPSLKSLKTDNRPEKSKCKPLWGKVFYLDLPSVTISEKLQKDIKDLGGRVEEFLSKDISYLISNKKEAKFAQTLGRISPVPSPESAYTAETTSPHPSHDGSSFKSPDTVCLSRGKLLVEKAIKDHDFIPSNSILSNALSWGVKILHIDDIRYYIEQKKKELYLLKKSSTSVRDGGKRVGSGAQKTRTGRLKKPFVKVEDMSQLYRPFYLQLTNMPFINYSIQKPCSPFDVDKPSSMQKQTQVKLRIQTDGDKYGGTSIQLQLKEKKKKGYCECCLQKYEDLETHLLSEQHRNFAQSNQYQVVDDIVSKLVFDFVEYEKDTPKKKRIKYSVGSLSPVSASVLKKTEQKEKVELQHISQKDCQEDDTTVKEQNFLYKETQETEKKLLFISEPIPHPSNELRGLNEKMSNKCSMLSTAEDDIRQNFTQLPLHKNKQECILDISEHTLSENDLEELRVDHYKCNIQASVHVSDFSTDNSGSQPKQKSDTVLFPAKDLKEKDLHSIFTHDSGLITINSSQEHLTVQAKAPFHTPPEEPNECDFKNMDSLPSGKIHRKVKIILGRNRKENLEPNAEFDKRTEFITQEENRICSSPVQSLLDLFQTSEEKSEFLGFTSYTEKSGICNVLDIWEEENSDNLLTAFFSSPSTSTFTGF

With `Cn1ccnc1C(=O)Nc1ccc(-c2nc3c(oc4ccc(Br)cc43)c(=O)[nH]2)c(Cl)c1` [Compound 390, N-[4-(8-bromo-4-oxo-3,4-dihydro[1]benzofuro[3,2-d]pyrimidin-2-yl)-3-chlorophenyl]-1-methyl-1H-imidazole-2-carboxamide], the IC50 (on CDC7 (setting [2]); in assay [1]; at CK2 (setting [3])) was under 10 µM in each case.

Take `Cn1ccc(C(=O)Nc2ccc(-c3nc4c(oc5ccc(Br)cc54)c(=O)[nH]3)c(Cl)c2)n1` [Compound 391]: the IC50 (on CDC7 (setting [2]); in assay [1]; at CK2 (setting [3])) was under 10 µM each time.

Regarding `Nc1n[nH]c2ccc(C(=O)Nc3ccc(-c4nc5c(oc6ccc(Br)cc65)c(=O)[nH]4)c(Cl)c3)cc12` [Compound 393, ′3-amino-N-[4-(8-bromo-4-oxo-3,4-dihydro[1]benzofuro[3,2-d]pyrimidin-2-yl)-3-chlorophenyl]-1H-indazole-5-carboxamide], the IC50 (on CDC7 (setting [2]); in assay [1]; on CK2 (setting [3])) was under 10 µM in each case.

`NCCNC(=O)c1ccc(C(=O)Nc2ccc(-c3nc4c(oc5ccc(Br)cc54)c(=O)[nH]3)c(Cl)c2)nc1` [Compound 394, ′N′5′-(2-aminoethyl)-N′2′-[4-(8-bromo-4-oxo-3,4-dihydro[1]benzofuro[3,2-d]pyrimidin-2-yl)-3-chlorophenyl]pyridine-2,5-dicarboxamide]: the IC50 (on CDC7 (setting [2]); in assay [1]; on CK2 (setting [3])) was under 10 µM each time.

On to `O=C(Nc1ccc(-c2nc3c(oc4ccc(Br)cc43)c(=O)[nH]2)c(Cl)c1)c1cnc2[nH]ccc2c1` [Compound 395, ′N-[4-(8-bromo-4-oxo-3,4-dihydro[1]benzofuro[3,2-d]pyrimidin-2-yl)-3-chlorophenyl]-1H-pyrrolo[2,3-b]pyridine-5-carboxamide], for which the IC50 (on CDC7 (setting [2]); in assay [1]; at CK2 (setting [3])) was under 10 µM each time.

As for `O=c1[nH]c(CN2C3CCC2CC(O)C3)nc2c1oc1ccc(Br)cc12` (stereo not shown) [Compound 398, 8-bromo-2-[(3-hydroxy-8-azabicyclo[3.2.1]oct-8-yl)methyl][1]benzofuro[3,2-d]pyrimidin-4(3H)-one], the concentration for half-maximal inhibition (IC50) at CDC7 (CDC7 IC50 (Activity A), Table 1 activity class, symbol given only if active) was under 10 µM; in assay [1] it was under 10 µM; against CK2 it was under 10 µM.

Consider `O=c1[nH]c(CN2CCCC(O)C2)nc2c1oc1ccc(Br)cc12` (stereo not shown) [Compound 400, 8-bromo-2-[(3-hydroxypiperidin-1-yl)methyl][1]benzofuro[3,2-d]pyrimidin-4(3H)-one], for which the IC50 is under 10 µM at CDC7 (setting [2]), under 0.1 µM on CDC7 (setting [4]), under 10 µM in assay [1] and under 10 µM on CK2 (setting [3]).

For `CN(CCO)Cc1nc2c(oc3ccc(Br)cc32)c(=O)[nH]1` [Compound 401, 8-bromo-2-{[(2-hydroxyethyl)(methyl)amino]methyl}[1]benzofuro[3,2-d]pyrimidin-4(3H)-one], the IC50 on CDC7 (setting [2]) is under 10 µM; at CDC7 (setting [4]) it was under 0.1 µM; in assay [1], under 10 µM; on CK2 (setting [3]), under 10 µM.

For `O=c1[nH]c(CN2CCC[C@H](O)C2)nc2c1oc1ccc(Br)cc12` [Compound 404, 8-bromo-2-{[(3S)-3-hydroxypiperidin-1-yl]methyl}[1]benzofuro[3,2-d]pyrimidin-4(3H)-one], the IC50 is under 10 µM at CDC7 (setting [2]), under 0.1 µM on CDC7 (setting [4]), under 10 µM in assay [1] and under 10 µM on CK2 (setting [3]).

With `O=C(Nc1ccc(-c2nc3c(oc4ccc(Br)cc43)c(=O)[nH]2)c(Cl)c1)c1csnn1` [Compound 406, N-[4-(8-bromo-4-oxo-3,4-dihydro[1]benzofuro[3,2-d]pyrimidin-2-yl)-3-chlorophenyl]-1,2,3-thiadiazole-4-carboxamide], the IC50 (on CDC7 (setting [2]); in assay [1]; at CK2 (setting [3])) was under 10 µM throughout.

Take `CCC1(O)CCN(Cc2nc3c(oc4ccc(Br)cc43)c(=O)[nH]2)C1` (stereo not shown) [Compound 407, 8-bromo-2-[(3-ethyl-3-hydroxypyrrolidin-1-yl)methyl][1]benzofuro[3,2-d]pyrimidin-4(3H)-one]: the IC50 is under 10 µM at CDC7 (setting [2]), under 0.1 µM on CDC7 (setting [4]), under 10 µM in assay [1] and under 10 µM at CK2 (setting [3]).

With `CO[C@@H]1CCN(Cc2nc3c(oc4ccc(Br)cc43)c(=O)[nH]2)C1` [Compound 408, 8-bromo-2-{[(3R)-3-(methyloxy)pyrrolidin-1-yl]methyl}[1]benzofuro[3,2-d]pyrimidin-4(3H)-one], the half-maximal inhibitory concentration (IC50) on CDC7 (setting [2]) was under 10 µM; at CDC7 (setting [4]) it was under 0.1 µM; in assay [1] it was under 10 µM; on CK2 (setting [3]) it was under 10 µM.

Take `O=c1[nH]c(CN2CC3CCC2C3O)nc2c1oc1ccc(Br)cc12` (stereo not shown) [Compound 412, 8-bromo-2-[(7-hydroxy-2-azabicyclo[2.2.1]hept-2-yl)methyl][1]benzofuro[3,2-d]pyrimidin-4(3H)-one]: the half-inhibitory concentration (IC50) at CDC7 (setting [2]) is under 10 µM; on CDC7 (setting [4]), under 0.1 µM; in assay [1], under 10 µM; at CK2 (setting [3]), under 10 µM.

Take `O=c1[nH]c(CN2CC3CCC2[C@H]3O)nc2c1oc1ccc(Br)cc12` (stereo partly drawn) [Compound 413, 8-bromo-2-{[(7S)-7-hydroxy-2-azabicyclo[2.2.1]hept-2-yl]methyl}[1]benzofuro[3,2-d]pyrimidin-4(3H)-one]: the IC50 on CDC7 (setting [2]) was under 10 µM; on CDC7 (setting [4]), under 0.1 µM; in assay [1] it was under 10 µM; at CK2 (setting [3]) it was under 10 µM.

In the case of `Cc1cc2oc3c(=O)[nH]c(CN4CC[C@H](O)C4)nc3c2cc1Br` [Compound 420, 8-bromo-2-{[(3S)-3-hydroxypyrrolidin-1-yl]methyl}-7-methyl[1]benzofuro[3,2-d]pyrimidin-4(3H)-one], the IC50 (at CDC7 (setting [2]); in assay [1]; at CK2 (setting [3])) was under 10 µM each time.

With `CNCc1ccc(-c2nc3c(oc4ccc(Br)cc43)c(=O)[nH]2)c(Cl)c1` [Compound 422, 8-bromo-2-{2-chloro-4-[(methylamino)methyl]phenyl}[1]benzofuro[3,2-d]pyrimidin-4(3H)-one], the IC50 (on CDC7 (setting [2]); in assay [1]; on CK2 (setting [3])) was under 10 µM in each case.

Turning to `CN1[C@@H]2CC[C@H]1CN(Cc1nc3c(oc4ccc(Br)cc43)c(=O)[nH]1)CC2` [Compound 425, 8-bromo-2-{[(1S,6R)-9-methyl-3,9-diazabicyclo[4.2.1]non-3-yl]methyl}[1]benzofuro[3,2-d]pyrimidin-4(3H)-one], the IC50 (on CDC7 (setting [2]); in assay [1]; on CK2 (setting [3])) was under 10 µM in each case.

Take `CN1CCCN(Cc2nc3c(oc4ccc(Br)cc43)c(=O)[nH]2)CC1` [Compound 426, 8-bromo-2-[(4-methyl-1,4-diazepan-1-yl)methyl][1]benzofuro[3,2-d]pyrimidin-4(3H)-one]: the 50% inhibitory concentration (IC50) on CDC7 (setting [2]) was under 10 µM; at CDC7 (setting [4]), under 0.1 µM; in assay [1], under 10 µM; at CK2 (setting [3]), under 10 µM.

On to `O=c1[nH]c(-c2ccc(CNC3CCCCC3)cc2Cl)nc2c1oc1ccc(Br)cc12` [Compound 427, 8-bromo-2-{2-chloro-4-[(cyclohexylamino)methyl]phenyl}[1]benzofuro[3,2-d]pyrimidin-4(3H)-one], for which the IC50 (on CDC7 (setting [2]); in assay [1]; on CK2 (setting [3])) was under 10 µM each time.

Consider `COc1ccc(Br)c2oc3c(=O)[nH]c(CN4CC[C@H](O)C4)nc3c12` [Compound 428, 6-bromo-2-{[(3S)-3-hydroxypyrrolidin-1-yl]methyl}-9-(methyloxy)[1]benzofuro[3,2-d]pyrimidin-4(3H)-one], for which the IC50 (at CDC7 (setting [2]); in assay [1]; at CK2 (setting [3])) was under 10 µM in each case.

On to `O=c1[nH]c(CN2CC[C@H](O)C2)nc2c1oc1ccc(Cl)cc12` [Compound 429, 8-chloro-2-{[(3S)-3-hydroxypyrrolidin-1-yl]methyl}[1]benzofuro[3,2-d]pyrimidin-4(3H)-one], for which the IC50 on CDC7 (setting [2]) is under 10 µM; on CDC7 (setting [4]), under 0.1 µM; in assay [1], under 10 µM; at CK2 (setting [3]), under 10 µM.

With `CC(C)NCc1ccc(-c2nc3c(oc4ccc(Br)cc43)c(=O)[nH]2)c(Cl)c1` [Compound 430, 8-bromo-2-(2-chloro-4-{[(1-methylethyl)amino]methyl}phenyl)[1]benzofuro[3,2-d]pyrimidin-4(3H)-one], the IC50 (at CDC7 (setting [2]); in assay [1]; on CK2 (setting [3])) was under 10 µM each time.

As for `O=c1[nH]c(CN2CC[C@H](O)C2)nc2c1oc1ccc3cn[nH]c3c12` [Compound 432, 9-{[(3S)-3-hydroxypyrrolidin-1-yl]methyl}-1H-pyrimido[4′,5′:4,5]furo[2,3-g]indazol-7(8H)-one], the IC50 on CDC7 (setting [2]) is under 10 µM; on CDC7 (setting [4]) it was under 0.1 µM; in assay [1], under 10 µM; at CK2 (setting [3]), under 10 µM.

As to `Cc1cc2c(cc1[N+](=O)O)oc1c(=O)[nH]c(CN3CC[C@H](O)C3)nc12` [Compound 433, hydroxy(2-{[(3S)-3-hydroxypyrrolidin-1-yl]methyl}-8-methyl-4-oxo-3,4-dihydro[1]benzofuro[3,2-d]pyrimidin-7-yl)oxoammonium], the IC50 (on CDC7 (setting [2]); in assay [1]; on CK2 (setting [3])) was under 10 µM each time.

For the compound `Cc1cc(Br)cc2c1oc1c(=O)[nH]c(CN3CC[C@H](O)C3)nc12` [Compound 434, 8-bromo-2-{[(3S)-3-hydroxypyrrolidin-1-yl]methyl}-6-methyl[1]benzofuro[3,2-d]pyrimidin-4(3H)-one], the IC50 (on CDC7 (setting [2]); in assay [1]; at CK2 (setting [3])) was under 10 µM throughout.

(Values after patent US20090247559A1 (Exelixis, Inc., priority 2007, published 2009).)
